Values of other authors in patent US5711967A (Spirig AG, Pharmazeutische Praeparate, priority 1991, dated 1998).

Tests used:
[1] = above pKa value of approx. 4-5
[2] = test system: mucosa; conditions: release in the stomach

O=C(O)Cc1ccccc1Nc1c(Cl)cccc1Cl [diclofenac]
solubility in aqueous media [1]: increases considerably above this value
distribution into the synovial fluid (from the blood plasma): concentrate in the synovial fluid, with a delay
elimination half-life (non-delayed-action diclofenac): 1 to 2 h
blood concentration half-life (oral diclofenac preparations): one to two
action on mucosa [2]: mucosa-irritating and/or mucosa-damaging
